Molecular target: T1, FPRL-1 (Homo sapiens, UniProt P25090)
T1 construct: expressed in transfected cells
T1 sequence (P25090 1-351): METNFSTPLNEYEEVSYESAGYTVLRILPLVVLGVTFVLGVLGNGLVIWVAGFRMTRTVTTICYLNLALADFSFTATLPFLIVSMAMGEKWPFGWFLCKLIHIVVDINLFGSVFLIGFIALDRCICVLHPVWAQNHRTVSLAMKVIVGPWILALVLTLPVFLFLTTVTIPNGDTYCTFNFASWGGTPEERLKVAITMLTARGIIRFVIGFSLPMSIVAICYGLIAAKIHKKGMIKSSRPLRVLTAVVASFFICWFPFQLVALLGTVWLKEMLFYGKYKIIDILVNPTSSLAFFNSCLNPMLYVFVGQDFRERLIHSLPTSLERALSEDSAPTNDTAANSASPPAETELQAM
Test: compound-induced calcium activity on FLIPR Tetra in CHO-Gα16 cells stably expressing FPRL1
Type: cell-based
Settings: for FPRL-1 Ga16-CHO (Rel. eff.): relative efficacy; for EC50: tested 0.61 to 10,000 nM, read-out: FPRL-1 Ga16-CHO EC50
Procedure: CHO-Gα16 cells stably expressing FPRL1 were cultured in (F12, 10% FBS, 1% PSA, 400 μg/ml geneticin and 50 μg/ml hygromycin) and HEK-Gqi5 cells stable expressing FPR1 were cultured in (DMEM high glucose, 10% FBS, 1% PSA, 400 μg/ml geneticin and 50 μg/ml hygromycin). In general, the day before the experiment, 18,000 cells/well were plated in a 384-well clear bottom poly-d-lysine coated plate. The following day the screening compound-induced calcium activity was assayed on the FLIPR^Tetra. The drug plates were prepared in 384-well microplates using the EP3 and the MultiPROBE robotic liquid handling systems. Compounds were tested at concentrations ranging from 0.61 to 10,000 nM. Results are expressed as EC50 (nM) and efficacy values.

Row | SMILES | FPRL-1 Ga16-CHO (Rel. eff.) | EC50 [nM]
1 | CC(=O)CNC(=O)[C@H](Cc1ccccc1)NC(=O)Nc1ccc(Br)cc1 [Compound 16, (2S)-2-{[(4-bromophenyl)carbamoyl]aminio}-N-(2-oxopropyl)-3-phenylpropanamide] | (0.96) | 29
2 | CC(C)C[C@H](NC(=O)Nc1ccc(Br)cc1F)C(=O)NCC(=O)O [Compound 34, {[(2S)-2-{[(4-bromo-2-fluorophenyl)carbamoyl]amino}-4-methylpentanoyl]amino}acetic acid] | (1.10) | 3.6
3 | O=C(Nc1ccc(Br)cc1F)N[C@@H](Cc1ccccc1)C(=O)NCCO [Compound 19, (2S)-2-{[(4-bromo-2-fluorophenyl)carbamoyl]amino}-N-(2-hydroxyethyl)-3-phenylpropanamide] | (0.98) | 16
4 | CCC[C@H](NC(=O)Nc1ccc(Br)cc1)C(=O)NCCO [Compound 20, (2S)-2-{[(4-bromophenyl)carbamoyl]amino}-N-(2-hydroxyethyl)pentanamid] | (0.92) | 38
5 | O=C(O)CNC(=O)C(Cc1c[nH]cn1)NC(=O)Nc1ccc(Br)cc1 (centres unmarked) [Compound 85, {[2-{[(4-bromophenyl)carbamoyl]amino}-3-(1H-imidazol-4-yl)propanoyl]amino}acetic acid] | (0.95) | 10
6 | CC[C@@H](C)[C@@H](NC(=O)Nc1ccc(Br)cc1)C(=O)NCC(=O)O [Compound 65, {[(2R,3R)-2-{[(4-bromophenyl)carbamoyl]amino}-3-methylpentanoyl]amino}acetic acid] | (0.45) | 19300
7 | CC(C)C[C@H](NC(=O)Nc1ccc(S(C)(=O)=O)cc1)C(=O)NCC(=O)OC(C)(C)C [Compound 76, tert-butyl {[(2S)-4-methyl-2-({[4-(methylsulfonyl)phenyl]carbamoyl}amino)pentanoyl]amino}acetate] | (0.90) | 1080
8 | O=C(O)CCNC(=O)[C@H](Cc1ccccc1)NC(=O)Nc1ccc(Br)cc1 [Compound 2, 3-{[(2S)-2-{[(4-bromophenyl)carbamoyl]amino}-3-phenylpropanoyl]amino}propanoic acid] | (0.98) | 18
9 | CC(C)C[C@H](NC(=O)Nc1ccc(Br)cc1)C(=O)N[C@@H](C)C(=O)OC(C)(C)C [Compound 41] | (0.96) | 147
10 | CC(C)(C)OC(=O)CNC(=O)[C@H](CCS(C)(=O)=O)NC(=O)Nc1ccc(Br)cc1 [Compound 81, tert-butyl {[(2S)-2-{[(4-bromophenyl)carbamoyl]amino}-4-(methylsulfonyl)butanoyl]amino}acetate] | (0.97) | 1240
11 | CC(C)C[C@H](NC(=O)Nc1ccc(Br)cc1F)C(=O)N[C@@H](C)C(=O)OC(C)(C)C [Compound 38, tert-butyl(2S)-2-{[(2S)-2-{[(4-bromo-2-fluorophenyl)carbamoyl]amino}-4-methylpentanoyl]amino}propanoate] | (1.00) | 174
12 | CC(C)C[C@@H](NC(=O)Nc1ccc(Br)cc1)C(=O)NC(C)(C)C(=O)OC(C)(C)C [Compound 86, tert-butyl 2-{[(2R)-2-{[(4-bromophenyl)carbamoyl]amino}-4-methylpentanoyl]amino}-2-methylpropanoate] | (0.74) | 2730
13 | CCC[C@H](NC(=O)Nc1ccc(Br)cc1)C(=O)NCC(=O)OC [Compound 22, methyl {[(2S)-2-{[(4-bromophenyl)carbamoyl]amino}-pentanoyl]amino}acetate] | (0.88) | 17
14 | CC(C)C[C@H](NC(=O)Nc1ccc(Br)cc1F)C(=O)N[C@@H](C)C(N)=O [Compound 40, (2S)-N-[(1S)-2-amino-1-methyl-2-oxoethyl]-2-{[(4-bromo-2-fluorophenyl)carbamoyl]amino}-4-methylpentanamide] | (1.05) | 31
15 | CS(=O)(=O)CC[C@H](NC(=O)Nc1ccc(Br)cc1)C(=O)NCC(=O)O [Compound 83, {[(2S)-2-{[(4-bromophenyl)carbamoyl]amino}-4-(methylsulfonyl)butanoyl]amino}acetic acid] | (1.01) | 247
16 | CCC(CC)(NC(=O)Nc1ccc(Br)cc1)C(=O)NCC(=O)O [Compound 58, {[2-{[(4-bromophenyl)carbamoyl]amino}-2-ethylbutanoyl]amino}acetic acid] | (1.04) | 19
17 | CC(C)C[C@H](NC(=O)Nc1ccc(SC(F)(F)F)cc1)C(=O)NCC(=O)O [Compound 72, ({(2S)-4-methyl-2-[({4-[(trifluoromethyl)sulfanyl]phenyl}carbamoyl)amino]pentanoyl}amino)acetic acid] | (1.07) | 560
18 | CCC[C@H](NC(=O)Nc1ccc(Br)cc1F)C(=O)NCC(=O)O [{[(2S)-2-{[(4-bromo-2-fluorophenyl)carbamoyl]amino}pentanoyl]amino}acetic acid] | (0.92) | 4.8
19 | CC(C)(NC(=O)Nc1ccc(Br)cc1)C(=O)NCC(=O)O [Compound 60, {[2-{[(4-bromophenyl)carbamoyl]amino}-2-methylpropanoyl]amino}acetic acid] | (0.99) | 480
20 | CC(C)(C)OC(=O)CNC(=O)[C@H](Cc1ccccc1)NC(=O)Nc1ccc(Br)cc1 [Compound 7, tert-Butyl {[(2S)-2-{[(4-bromophenyl)carbamoyl]amino}-3-phenylpropanoyl]amino}acetate] | (0.91) | 118
21 | CC(C)C[C@H](NC(=O)Nc1ccc(Br)cc1)C(=O)N[C@H](C(=O)OC(C)(C)C)c1ccccc1 [Compound 50, tert-butyl(2S)-{[(2S)-2-{[(4-bromophenyl)carbamoyl]amino}-4-methylpentanoyl]amino}(phenyl)ethanoate] | (1.02) | 122
22 | CC(C)(C)OC(=O)CNC(=O)[C@H](Cc1c[nH]c2ccccc12)NC(=O)Nc1ccc(Br)cc1 (stereo in doubt) [Compound 90, tert-butyl {[2-{[(4-bromophenyl)carbamoyl]amino}-3-(1H-indol-3-yl)propanoyl]amino}acetate] | (1.03) | 305

The remaining compounds from weak to strong by EC50, led by results:

Row | FPRL-1 Ga16-CHO (Rel. eff.) | EC50 [nM] | SMILES
23 | (0.90) | 2310 | CC(C)(C)OC(=O)CNC(=O)C(CC(N)=O)NC(=O)Nc1ccc(Br)cc1 (centres unmarked) [Compound 88, tert-butyl {[4-amino-2-{[(4-bromophenyl)carbamoyl]amino}-4-oxobutanoyl]amino}acetate]
24 | (0.85) | 280 | CC[C@H](C)[C@H](NC(=O)Nc1ccc(Br)cc1)C(=O)NCC(=O)OC(C)(C)C [Compound 11, tert-butyl{[(2S,3S)-2-{[(4-bromophenyl)carbamoyl]amino}-3-methylpentanoyl]amino}acetate]
25 | (1.16) | 133 | CC(C)C[C@H](NC(=O)Nc1ccc(Br)cc1)C(=O)NC(C)(C)C(=O)OC(C)(C)C [Compound 73, tert-butyl 2-{[(2S)-2-{[(4-bromophenyl)carbamoyl]amino}-4-methylpentanoyl]amino}-2-methylpropanoate]
26 | (0.98) | 58 | CC(C)CC(C)(NC(=O)Nc1ccc(Br)cc1)C(=O)NCC(=O)OC(C)(C)C (centres unmarked) [Compound 55, tert-butyl {[2-{[(4-bromophenyl)carbamoyl]amino}-2,4-dimethylpentanoyl]amino}acetate]
27 | (0.97) | 10 | CC[C@H](C)[C@H](NC(=O)Nc1ccc(Br)cc1)C(=O)NCC(C)=O [Compound 12, (2S,3S)-2-{[(4-bromophenyl)carbamoyl]amino}-3-methyl-N-(2-oxopropyl)pentanamide]
28 | (1.08) | 9.1 | CC(C)C[C@H](NC(=O)Nc1ccc(Br)cc1)C(=O)N[C@H](C(=O)O)c1ccccc1 [Compound 52, (2S)-{[(2S)-2-{[(4-bromophenyl)carbamoyl]amino}-4-methylpentanoyl]amino}(phenyl)ethanoic acid]
29 | (0.92) | 2.3 | CC(C)C[C@H](NC(=O)Nc1ccc(C(F)(F)F)cc1)C(=O)NC(C)(C)C(=O)O [Compound 69, 2-methyl-2-{[(2S)-4-methyl-2-({[4-(trifluoromethyl)phenyl]carbamoyl}amino)pentanoyl]amino}propanoic acid]
30 | (0.96) | 1 | CC(C)C[C@H](NC(=O)Nc1ccc(Br)cc1)C(=O)NC(C)(C)C(=O)O [Compound 74, 2-{[(2S)-2-{[(4-bromophenyl)carbamoyl]amino}-4-methylpentanoyl]amino}-2-methylpropanoic acid]
31 | (0.97) | 0.73 | O=C(O)CNC(=O)C(Cc1c[nH]c2ccccc12)NC(=O)Nc1ccc(Br)cc1 (centres unmarked) [{[2-{[(4-bromophenyl)carbamoyl]amino}-3-(1H-indol-3-yl)propanoyl]amino}acetic acid]

From patent US10172832B2, “Amide derivatives of N-urea substituted amino acids as formyl peptide receptor like-1 (FPRL-1) receptor modulators” (Allergan, Inc., priority 2011, dated 2019)
